Measured values as given in patent US20260083769A1, “2-Aminopropane-1,3-Diol-Capped Cationic Peptoids for Nucleic Acid Delivery” (NUTCRACKER THERAPEUTICS, INC., priority 2022, published 2026).
Entries after “also recorded” stand apart in the source; their conditions may differ. Where a SMILES comes first, the peptide text is derived from it. [ ]: non-standard residue; d: D form. N(2-ethylhexyl)Gly = CCCCC(CC)CNCC(=O)O; Gly(N-dodecyl) = CCCCCCCCCCCCNCC(=O)O; N(CH(CH2OH)2)Gly = O=C(O)CNC(CO)CO; NHexGly = CCCCCCNCC(=O)O

Tests used:
[1] = Particle size and polydispersity (PDI) of delivery vehicles by dynamic light scattering; type: physicochemical; conditions: Table 5; delivery vehicle comprising the peptoid, Formulation D22, fLuc mRNA
Method in brief: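 Dynamic light scattering of formulated samples diluted to 2 ng/μL in PBS. Size reported as hydrodynamic diameter (nm) from cumulant fit of the correlation function, with its polydispersity index.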

[2] = Zeta potential of delivery vehicles; type: physicochemical; conditions: Table 5; delivery vehicle, pH 7 buffer; in mV (unit assumed)
Protocol: In one particular instance, the size and polydispersity (PDI) of delivery vehicles was measured by dynamic light scattering in PBS using a DynaPro® plate reader III. The zeta potential of delivery vehicles was determined using Nano-ZS™ particle analyzer. Zeta sample was diluted to 30 uM total lipid in a weakly buffered solution of 10 mM HEPES, 10 mM MES, 10 mM ammonium acetate pH 7. Measurements were collected in duplicate for over 30 run with the voltage manually set to […]

BALB/c mice [3] = assay: Serum anti-RSV antibody (aRSV) after IV dose of aRSV mRNA delivery vehicles, IgG ELISA; type: in vivo; conditions: for serum levels of aRSV (secreted protein expression): BALB/c mice, IV, 0.75 mg/kg mRNA, after 24 hours, IgG ELISA; for secreted protein (serum aRSV) expression in vivo, comparison of monomer order isomers: Compound 31 versus Compound 41
Protocol: (§1) For imaging studies, female BALB/c mice (6-8 weeks old) were obtained and acclimatized for a minimum of 3 days prior to experiments. The animals were maintained on a 12 hour light cycle in a temperature and humidity controlled room. A daily health check was performed as well as food and water check. For dosing, mice were injected with 2.5 μg fLuc mRNA-containing delivery vehicles intravenously in 100 μL total injection volume. At 6 hours post-injection, mice were anesthetized with isoflurane, and injected intraperitoneally with 30 mg/mL D-luciferin at a dose of 10 μL per gram bodyweight intraperitoneally. Imaging was done 10 minutes post D-luciferin injection using an IVIS® Spectrum Imaging System. Immediately after in vivo imaging, mice were terminally bled by cardiac puncture and euthanized. The organs of interest were harvested, placed in black 24-well plates, and imaged. Living Image® software was used to quantify the total photon flux in regions of interest. For secreted protein studies, mice were injected with aRSV mRNA-containing delivery vehicles intravenously in 100 μL total injection volume. Mice were euthanized after 24 hours, with serum collection at 6 and 24 hours post-injection. Serum was used to quantify secreted aRSV levels using ELISA following the manufacturer's recommendation for IgG using a standard curve generated from aRSV protein.
To understand how the delivery vehicles disclosed herein (e.g., delivery vehicles comprising compounds of Formula (I)) performed as systemic delivery vehicles, the top four candidates for firefly luciferase expression from the optimized DOE model (Compounds 12, 41, 34, and 35) were evaluated for their ability to produce anti-RSV antibody in BALB/c mice. Anti-RSV was chosen as a model target due to the availability of therapeutic benchmarking information and sequence availability. Delivery vehicles comprising aRSV were formulated from two mRNA molecules encoding the heavy and light chain at a 2:1 mass ratio. All delivery vehicles were below 120 nm in size with encapsulation greater than 85% (Table 7).
Delivery vehicles were dosed intravenously in BALB/c mice at a total dose of 0.75 mg/kg mRNA and serum levels of aRSV were compared after 24 hours by an IgG ELISA.

BALB/c mice [4] = assay: In vivo fLuc mRNA expression after IV dose, whole body and organ bioluminescence; conditions: for fLuc (luciferase) expression in vivo: BALB/c mice, IV, luminescence 6 hours after dose, lipid block screen; for luciferase expression in vivo, comparison of monomer order isomers: Compound 31 versus Compound 41
From the text: In one particular instance, peptoids disclosed herein were formulated into delivery vehicles by first dissolving in ethanol along with DSPC, cholesterol, and DMG-PEG2000 at weight ratio of 20:1.8:7.2:1.8 (Formulation D22 in Table 3, above), then mixed with firefly luciferase (fLuc) mRNA dissolved in an aqueous buffer at a volume ratio of 1:3 via microfluidic nanoprecipitation on a turbulent mixing device, resulting in small, low dispersity particles. Physical particle properties were characterized. Delivery vehicles with initial sizes larger than 120 nm were not brought forward into in vivo screening as liver fenestrae primarily accommodate LNPs sized under 100 nm. In vivo expression of delivery vehicles comprising peptoids with varied headgroups was evaluated using fLuc expression in BALB/c mice 6 hours after IV dose (FIG. 1). […] The aminoethyl and aminopropyl headgroups both show preferential expression in lung (FIG. 2), potentially due to the high basicity of the pendant primary amine, as groups with higher pKas are known to accumulate in that organ. […] While spleen and lung selectivity merit further optimization for future therapeutic applications, liver-selective targets were used for further studies herein to prepare for systemic delivery of antibody targets and maximize their serum expression with anti-RSV cargo.
Intravenous administration. The delivery vehicle complexes disclosed herein are effective for in vivo administration of Fluc mRNA to BALB/c mice through multiple routes of administration. In general, delivery system complexes were administered at a dose of 0.5 mg/kg via a tail-vein injection, and the resulting bioluminescence was quantified after 6 hours. Organ-specific bioluminescence was quantified by sacrificing the treated animal, dissecting out the organs of interest, and separately quantifying the resulting bioluminescence
In one particular instance, to investigate how the peptoid lipid block impacts in vivo expression, delivery vehicles with diameter larger than 120 nm were excluded and remaining candidates were administered IV to BALB/c mice. Luminescence was measured after 6 hours and the resulting expression in liver, lung and spleen were quantified. Even without changing the cationic headgroup, luciferase expression spanned 4 orders of magnitude as a result of altering the lipid block in this series. […] In vivo expression of all candidates was then fit to a multi-parameter model containing the 4 input parameters to understand the individual contributions of each factor to overall performance. […] Contour plots of the impact of these factors on expression (all using Ehx as the branched/unsaturated monomer) are shown in FIG. 4.
as §1, with “Serum was used to quantify secreted aRSV levels using ELISA following the manufacturer's recommendation for IgG using a standard curve generated from aRSV protein.” left out

Compound | PDI [1] | Particle Size (nm) [1] | Zeta Potential [2] | serum levels of aRSV (secreted protein expression) (BALB/c mice [3]) | fLuc (luciferase) expression in vivo (BALB/c mice [4]) | secreted protein (serum aRSV) expression in vivo, comparison of monomer order isomers (BALB/c mice [3]) | luciferase expression in vivo, comparison of monomer order isomers (BALB/c mice [4]) | serum levels of aRSV (secreted protein expression) (BALB/c mice [3]; 0.75 mg/kg) | dependence of serum aRSV titers on injected dose (BALB/c mice [3]; Compound 41 in Formulation D22, 0.3, 0.75, and 1.5 mg/kg) | time aRSV titers were observed in the serum (BALB/c mice [3]; Compound 41 in Formulation D22, mice, post-dosing)
CCCCCCN(CC(N)=O)C(=O)CN(CC(CC)CCCC)C(=O)CN(CC(CC)CCCC)C(=O)CN(CCCCCC)C(=O)CN(CC(CC)CCCC)C(=O)CN(CC(CC)CCCC)C(=O)CNC(CO)CO (stereo not drawn) [Compound 12] (H-[N(CH(CH2OH)2)Gly][N(2-ethylhexyl)Gly][N(2-ethylhexyl)Gly][NHexGly][N(2-ethylhexyl)Gly][N(2-ethylhexyl)Gly][NHexGly]-NH2) | 0.32 | 91.4 nm | −8.68 | lowest aRSV expression of the top 4 candidates | top expressers; also recorded: highest overall fLuc expression |  |  |  |  | 
CCCCCCCCCCCCN(CC(=O)N(CC(=O)N(CC(=O)N(CCCCCCCCCCCC)CC(=O)N(CC(=O)N(CC(N)=O)CC(CC)CCCC)CC(CC)CCCC)CC(CC)CCCC)CC(CC)CCCC)C(=O)CNC(CO)CO (stereo not drawn) [Compound 31] (H-[N(CH(CH2OH)2)Gly][Gly(N-dodecyl)][N(2-ethylhexyl)Gly][N(2-ethylhexyl)Gly][Gly(N-dodecyl)][N(2-ethylhexyl)Gly][N(2-ethylhexyl)Gly]-NH2) | 0.1 | 80.8 nm | −11.2 |  |  | within error | within error |  |  | 
CCCCCCCCCCCCN(CC(=O)N(CC(N)=O)CC(CC)CCCC)C(=O)CN(CCCCCC)C(=O)CN(CC(CC)CCCC)C(=O)CN(CCCCCCCCCCCC)C(=O)CN(CCCCCC)C(=O)CNC(CO)CO (stereo not drawn) [Compound 34] (H-[N(CH(CH2OH)2)Gly][NHexGly][Gly(N-dodecyl)][N(2-ethylhexyl)Gly][NHexGly][Gly(N-dodecyl)][N(2-ethylhexyl)Gly]-NH2) | 0.093 | 118.4 nm | −9.58 | highest levels of secreted protein expression | top expressers |  |  |  |  | 
CCCCCCCCCCCCN(CC(=O)N(CC(=O)N(CC(=O)N(CCCCCCCCCCCC)CC(=O)N(CC(N)=O)CC(CC)CCCC)CC(CC)CCCC)CC(CC)CCCC)C(=O)CN(CC(CC)CCCC)C(=O)CNC(CO)CO (stereo not drawn) [Compound 41] (H-[N(CH(CH2OH)2)Gly][N(2-ethylhexyl)Gly][Gly(N-dodecyl)][N(2-ethylhexyl)Gly][N(2-ethylhexyl)Gly][Gly(N-dodecyl)][N(2-ethylhexyl)Gly]-NH2) | 0.15 | 75.7 nm | −5.38 |  | top expressers | within error | within error | highest levels of secreted protein expression; also recorded: highest overall aRSV titers | generally linear dependence on injected dose | > 5 days
